According to patent US20260015325A1, “ALKOXY HETEROARYL- CARBOXAMIDE OR THIOAMIDE COMPOUNDS” (SYNGENTA CROP PROTECTION AG, priority 2022, published 2026):

How the values were obtained:
Format in all cases: in vivo
[1] = system: Bemisia tabaci (Cotton White Fly); assay: Bemisia tabaci (Cotton White Fly): feeding/contact activity, cotton leaf discs; conditions: foliar, 144 h, application rate of 200 ppm, adult white flies on sprayed cotton leaf discs, 6 days after incubation, read-out: mortality
Experimental: Example B1: Bemisia tabaci (Cotton White Fly): Feeding/Contact Activity
Cotton leaf discs were placed on agar in 24-well microtiter plates and sprayed with aqueous test solutions prepared from 10′000 ppm DMSO stock solutions. After drying the leaf discs were infested with adult white flies. The samples were checked for mortality 6 days after incubation.

[2] = system: Euschistus heros (Neotropical Brown Stink Bug); assay: Euschistus heros (Neotropical Brown Stink Bug), soybean leaves; conditions: 120 h, application rate of 200 ppm, N2 nymphs on sprayed soybean leaves, 5 days after infestation, read-out: effect in at least one of the two categories (mortality or growth inhibition)
Experimental: Example B4: Euschistus heros (Neotropical Brown Stink Bug)
Soybean leaves on agar in 24-well microtiter plates were sprayed with aqueous test solutions prepared from 10′000 ppm DMSO stock solutions. After drying the leaves were infested with N2 nymphs. The samples were assessed for mortality and growth inhibition in comparison to untreated samples 5 days after infestation.

[3] = system: Frankliniella occidentalis (Western Flower Thrips); assay: Frankliniella occidentalis (Western Flower Thrips): feeding/contact activity, sunflower leaf discs; conditions: foliar, 168 h, application rate of 200 ppm, mixed ages on sprayed sunflower leaf discs, 7 days after infestation
Experimental: Example B5: Frankliniella occidentalis (Western Flower Thrips): Feeding/Contact Activity
Sunflower leaf discs were placed on agar in 24-well microtiter plates and sprayed with aqueous test solutions prepared from […] stock solutions. After drying the leaf discs were infested with a Frankliniella population of mixed ages. The samples were assessed for mortality 7 days after infestation.

[4] = system: Myzus persicae (Green Peach Aphid); assay: Myzus persicae (Green Peach Aphid): feeding/contact activity, sunflower leaf discs; conditions: foliar, 144 h, application rate of 200 ppm, mixed ages on sprayed sunflower leaf discs, 6 days after infestation, read-out: mortality
Experimental: Example B6: Myzus persicae (Green Peach Aphid): Feeding/Contact Activity
Sunflower leaf discs were placed onto agar in a 24-well microtiter plate and sprayed with aqueous test solutions prepared from 10′000 ppm DMSO stock solutions. After drying, the leaf discs were infested with an aphid population of mixed ages. The samples were assessed for mortality 6 days after infestation.

[5] = system: Myzus persicae (Green Peach Aphid); assay: Myzus persicae (Green Peach Aphid): intrinsic activity, sucrose solution; conditions: 120 h, test rate of 12 ppm, intrinsic, mixed with sucrose solution under Parafilm, 5 days after infestation, read-out: mortality
Text: Example B8: Myzus persicae (Green Peach Aphid). Intrinsic Activity
Test compounds prepared from 10′000 ppm DMSO stock solutions were applied by pipette into 24-well microtiter plates and mixed with sucrose solution. The plates were closed with a stretched Parafilm. A plastic stencil with 24 holes was placed onto the plate and infested pea seedlings were placed directly on the Parafilm. The infested plate was closed with a gel blotting paper and another plastic stencil and then turned upside down. The samples were assessed for mortality 5 days after infestation.

[6] = system: Tetranychus urticae (Two-Spotted Spider Mite); assay: whole plant or invertebrate; conditions: foliar, 192 h, application rate of 200 ppm, mixed population (mobile stages) on sprayed bean leaf discs, 8 days after infestation, read-out: mortality
Experimental: Example B11: Tetranychus urticae (Two-Spotted Spider Mite): Feeding/Contact Activity
Bean leaf discs on agar in 24-well microtiter plates were sprayed with aqueous test solutions prepared from 10′000 ppm DMSO stock solutions. After drying the leaf discs were infested with a mite population of mixed ages. The samples were assessed for mortality on mixed population (mobile stages) 8 days after infestation.

[7] = system: Myzus persicae (Green Peach Aphid); assay: Myzus persicae (Green Peach Aphid): systemic activity, pea seedlings; conditions: 144 h, test rate of 24 ppm, systemic, roots of infested pea seedlings in test solution, 6 days, read-out: mortality
Experimental: Example B7: Myzus persicae (Green Peach Aphid). Systemic Activity
Roots of pea seedlings infested with an aphid population of mixed ages were placed directly into aqueous test solutions prepared from 10′000 DMSO stock solutions. The samples were assessed for mortality 6 days after placing seedlings into test solutions.

[8] = system: Plutella xylostella (Diamond Back Moth); assay: Plutella xylostella (Diamond Back Moth), artificial diet; conditions: 192 h, application rate of 200 ppm, eggs on treated artificial diet, 8 days after infestation, read-out: effect in at least one of the two categories (mortality or growth inhibition)
Experimental: Example B9: Plutella xylostella (Diamond Back Moth)
24-well microtiter plates with artificial diet were treated with aqueous test solutions prepared from 10′000 ppm DMSO stock solutions by pipetting. After drying, Plutella eggs were pipetted through a plastic stencil onto a gel blotting paper and the plate was closed with it. The samples were assessed for mortality and growth inhibition in comparison to untreated samples 8 days after infestation.

[9] = system: Diabrotica balteata (Corn Root Worm); assay: whole plant or invertebrate; conditions: 96 h, application rate of 200 ppm, L2 larvae on sprayed maize sprouts, 4 days after infestation, read-out: effect in at least one of the two categories (mortality or growth inhibition)
Experimental: Example B3: Diabrotica balteata (Corn Root Worm)
Maize sprouts placed onto an agar layer in 24-well microtiter plates were treated with aqueous test solutions prepared from 10′000 ppm DMSO stock solutions by spraying. After drying, the plates were infested with L2 larvae (6 to 10 per well). The samples were assessed for mortality and growth inhibition in comparison to untreated samples 4 days after infestation.

C[C@@H](COc1cnc(Cl)c(C(=O)NCC(F)(F)F)c1)NS(=O)(=O)C(F)(F)F [Compound P-3, 2-chloro-N-(2,2,2-trifluoroethyl)-5-[(2S)-2-(trifluoromethylsulfonylamino)propoxy]pyridine-3-carboxamide]
≥ 80%: mortality at 200 ppm [1] | percent effect (mortality or growth inhibition) at 200 ppm [2] | mortality at 200 ppm [3] | mortality at 200 ppm [4] | mortality at 12 ppm [5] | mortality at 200 ppm [6]

C[C@@H](COc1cnc(Cl)c(C(=O)NC23CC(C2)C3)c1)NS(=O)(=O)C(F)(F)F [Compound P-5, N-(1-bicyclo[1.1.1]pentanyl)-2-chloro-5-[(2S)-2-(trifluoromethylsulfonylamino)propoxy]pyridine-3-carboxamide]
≥ 80%: mortality at 200 ppm [4] | mortality at 24 ppm [7] | mortality at 12 ppm [5] | percent effect (mortality or growth inhibition) at 200 ppm [8] | mortality at 200 ppm [6]

C[C@@H](COc1cnc(Cl)c(C(=O)NC2(C#N)CC2)c1)N(C(=O)OC(C)(C)C)S(=O)(=O)C(F)(F)F [Compound P-6, tert-butyl N-[(1S)-2-[[6-chloro-5-[(1-cyanocyclopropyl)carbamoyl]-3-pyridyl]oxy]-1-methyl-ethyl]-N-(trifluoromethylsulfonyl)carbamate]
≥ 80%: mortality at 200 ppm [1] | percent effect (mortality or growth inhibition) at 200 ppm [2] | mortality at 200 ppm [3] | mortality at 200 ppm [4] | mortality at 24 ppm [7] | mortality at 12 ppm [5] | mortality at 200 ppm [6]

C[C@@H](COc1cnc(Cl)c(C(=O)Nc2ccc(C#N)cc2F)c1)NS(=O)(=O)C(F)(F)F [Compound P-22, 2-chloro-N-(4-cyano-2-fluoro-phenyl)-5-[(2S)-2-(trifluoromethylsulfonylamino)propoxy]pyridine-3-carboxamide]
≥ 80%: percent effect (mortality or growth inhibition) at 200 ppm [9] | mortality at 200 ppm [6]

C[C@@H](COc1cnc(Cl)c(C(=O)Nc2ccc(F)cc2F)c1)NS(=O)(=O)C(F)(F)F [Compound P-23, 2-chloro-N-(2,4-difluorophenyl)-5-[(2S)-2-(trifluoromethylsulfonylamino)propoxy]pyridine-3-carboxamide]
≥ 80%: mortality at 200 ppm [1] | mortality at 12 ppm [5] | percent effect (mortality or growth inhibition) at 200 ppm [8] | mortality at 200 ppm [6]

C[C@@H](COc1cnc(Cl)c(C(=O)Nc2ccc(Cl)cc2F)c1)NS(=O)(=O)C(F)(F)F [Compound P-25, 2-chloro-N-(4-chloro-2-fluoro-phenyl)-5-[(2S)-2-(trifluoromethylsulfonylamino)propoxy]pyridine-3-carboxamide]
≥ 80%: percent effect (mortality or growth inhibition) at 200 ppm [8] | mortality at 200 ppm [6]

Cc1ncc(OC[C@H](C)NS(=O)(=O)C(F)(F)F)cc1C(=O)NC(C)c1ncnn1-c1ccc(C#N)cn1 (stereo partly drawn) [Compound P-27, N-[1-[2-(5-cyano-2-pyridyl)-1,2,4-triazol-3-yl]ethyl]-2-methyl-5-[(2S)-2-(trifluoromethylsulfonylamino)propoxy]pyridine-3-carboxamide]
≥ 80%: percent effect (mortality or growth inhibition) at 200 ppm [8]

Cc1nc(C(C)NC(=O)c2cc(OC[C@H](C)NS(=O)(=O)C(F)(F)F)cnc2C)no1 (stereo partly drawn) [Compound P-38, 2-methyl-N-[1-(5-methyl-1,2,4-oxadiazol-3-yl)ethyl]-5-[(2S)-2-(trifluoromethylsulfonylamino)propoxy]pyridine-3-carboxamide]
≥ 80%: percent effect (mortality or growth inhibition) at 200 ppm [8]

Cc1ncc(OC[C@H](C)NS(=O)(=O)C(F)(F)F)cc1C(=O)NOCC1CC1 [Compound P-41, N-(cyclopropylmethoxy)-2-methyl-5-[(2S)-2-(trifluoromethylsulfonylamino)propoxy]pyridine-3-carboxamide]
≥ 80%: percent effect (mortality or growth inhibition) at 200 ppm [8]

C[C@@H](COc1cnc(Cl)c(C(=O)NC2CC2)c1)N(C(=O)OC(C)(C)C)S(=O)(=O)C(F)(F)F [Compound P-42, tert-butyl N-[(1S)-2-[[6-chloro-5-(cyclopropylcarbamoyl)-3-pyridyl]oxy]-1-methyl-ethyl]-N-(trifluoromethylsulfonyl)carbamate]
≥ 80%: percent effect (mortality or growth inhibition) at 200 ppm [2] | mortality at 200 ppm [3] | mortality at 200 ppm [4] | mortality at 12 ppm [5] | mortality at 200 ppm [6]

CC(=O)N([C@@H](C)COc1cnc(Cl)c(C(=O)NC2CC2)c1)S(=O)(=O)C(F)(F)F [Compound P-43, 5-[(2S)-2-[acetyl(trifluoromethylsulfonyl)amino]propoxy]-2-chloro-N-cyclopropyl-pyridine-3-carboxamide]
≥ 80%: mortality at 200 ppm [1] | percent effect (mortality or growth inhibition) at 200 ppm [2] | mortality at 200 ppm [3] | mortality at 200 ppm [4] | mortality at 24 ppm [7] | mortality at 12 ppm [5] | mortality at 200 ppm [6]

C[C@@H](COc1cnc(Cl)c(C(=O)N(C)C2(C#N)CC2)c1)NS(=O)(=O)C(F)(F)F [Compound P-47, 2-chloro-N-(1-cyanocyclopropyl)-N-methyl-5-[(2S)-2-(trifluoromethylsulfonylamino)propoxy]pyridine-3-carboxamide]
≥ 80%: mortality at 200 ppm [1] | mortality at 200 ppm [3] | mortality at 200 ppm [4] | mortality at 12 ppm [5]

C[C@@H](COc1cnc(Cl)c(C(=O)NC2(C#N)CCC2)c1)NS(=O)(=O)C(F)(F)F [Compound P-48, 2-chloro-N-(1-cyanocyclobutyl)-5-[(2S)-2-(trifluoromethylsulfonylamino)propoxy]pyridine-3-carboxamide]
≥ 80%: mortality at 200 ppm [3] | mortality at 200 ppm [4] | mortality at 24 ppm [7] | mortality at 12 ppm [5] | mortality at 200 ppm [6]

CCN1OC[C@@H](NC(=O)c2cc(OC[C@H](C)NS(=O)(=O)C(F)(F)F)ncc2Br)C1=O [Compound P-84, 5-bromo-N-[(4R)-2-ethyl-3-oxo-isoxazolidin-4-yl]-2-[(2S)-2-(trifluoromethylsulfonylamino)propoxy]pyridine-4-carboxamide]
≥ 80%: percent effect (mortality or growth inhibition) at 200 ppm [9]
